Assay results taken from patent publication US8163746B2, “Azolecarboxamide derivative” (Astellas Pharma Inc., priority 2006, dated 2012).

Key:
[1] = molecular target: T1, Human nerve growth factor receptor (Homo sapiens, UniProt P04629); experiment: Receptor inhibitory activity using cells expressing a nerve growth factor receptor (NGF-dependent intracellular Ca increase, FLIPR); assay type: cell-based; settings: HEK293 cells stably expressing Human nerve growth factor receptor; NGF about 100 to 150 ng/ml; Ca concentration change
T1 construct: expressed in transfected cells
Method: 1. Experiment to Measure a Receptor Inhibitory Activity Using Cells Expressing a Nerve Growth Factor Receptor
The nerve growth factor receptor inhibitory activity was measured by using the increase in a ligand-dependent calcium concentration in cells as an index. HEK293 cells (American Type Culture Collection) that stably expressed Human nerve growth factor receptor were dispensed onto a 96-well poly-D-lysine-coated plate (Product Name: Biocoat, PDL96W black/clear, by Nippon Becton Dickinson) to a 2×10^4 cells/well at the day before the experiment, and incubated overnight at 37° C. under 5% carbon dioxide (CO2) in a culture medium containing 10% fetal bovine serum (FBS) (Product Name: DMEM, Invitrogen Corporation). The culture medium was replaced by a washing solution: a Hank's balanced salt solution)(HBSS), containing a 1.5 μM loading buffer (fluorescent indicator (Product Name: Fluo-4-AM, […].)), 20 mM 2-[4-(2-hydroxyethyl)-1-piperazinyl]ethanesulfonic acid (HEPES)-sodium hydroxide (NaOH), 2.5 mM Probenecid, 0.1% bovine serum albumin (BSA), and left to stand at room temperature for 3 hours, and the cells were washed using a plate washer (Product Name: ELx405, BIO-TEK instrument Corporation) in which a washing solution had been set up. The compound that had been preliminarily dissolved and diluted in a washing solution was added thereto, and set up in a system for measuring a calcium (Ca) concentration in a cell (Product Name: FLIPR, Molecular Devices Corporation). After 5 minutes, a nerve growth factor (NGF, mouse derived 2.5S, Alomone) corresponding on 80% stimulation of a maximum response was added (to a final concentration of about 100 to 150 ng/ml) to measure the change in Ca concentrations in cells. A difference between a maximum value and a minimum value in Ca concentrations in cells was determined, and kept as measurement data. With a response upon addition of NGF being set at 0%, and a response upon addition of a buffer being set at 100%, the concentration causing 50% inhibition was determined as an IC50 value. In the table, Ex represents Compound No. of Examples as described later. From the results of this test, it was confirmed that the compound of the present invention has a nerve growth factor receptor inhibitory activity.

[2] = test system: acetic acid-induced painful behaviors in rat; experiment: Effects on acetic acid-induced painful behaviors (writhing) in rat; assay type: in vivo; settings: Wistar male rat; 10 mg/kg oral 5 min before 1% acetic acid i.p.; writhing frequency 10-20 min; vehicle group = 100%
Method: 4. Effects of the Compound on Acetic Acid-Induced Painful Behaviors in Rat
1% Acetic acid (99% distilled water) was intraperitoneally administered to a Wistar male rat (Charles river laboratories), and the frequency of pain behavior (writhing) between 10 min and 20 min after administration was measured. The compound (10 mg/5 ml/kg) or a vehicle (0.5% methylcellulose solution) was orally administered 5 mins before the administration of 1% acetic acid. With the frequency of the group administered with the vehicle being set at 100%, the inhibition rate of the writhing behavior frequency by the compound administration was determined.

[3] = test system: CPA-induced urinary frequency in rat; experiment: Effects on cyclophosphamide (CPA)-induced urinary frequency in rat; assay type: in vivo; settings: Wistar female rat, 2 days after CPA, value before administration = 100%
Method: 3. Effects of the Compound on the Cyclophosphamide (CPA)-Induced Urinary Frequency in Rat
CPA (150 mg/5 ml/kg) was intraperitoneally administered to a Wistar female rat (Charles river laboratories), and after two days, the experiment was carried out. It was forced to be orally administered with distilled water (30 ml/kg), and then placed in a metabolic cage, and the voided urine weight and the urination frequency were continuously measured for 1 hour. The compound (0.5% methylcellulose solution) 3 or 10 mg/5 ml/kg, or a vehicle (0.5% methylcellulose solution) 5 ml/kg was orally administered, and after 5 to 30 min, the urinary functions were measured after loading water in the same manner as described above. A total voided urine weight was divided by the total urination frequency to determine an effective bladder capacity. With the value before administration of the compound being set at 100%, a rate of change in the effective bladder capacity caused by administration of the compound was determined.
In this test, at 2 days after CPA treatment, the effective bladder capacity was decreased (about 0.5 ml), indicating urinary frequency condition.

trkA receptor = molecular target: T2, trkA receptor (Rattus norvegicus, UniProt P35739); experiment: Inhibitory activity on enhanced vascular permeability caused by NGF in rat (Evans blue); assay type: in vivo; settings: Wistar female rat, 10 mg/kg oral, NGF intracutaneous 60 min after administration, vehicle group set at 100%
T2 construct: from tissue; host or cells: Wistar female rat (SLC), skin of the back, in vivo
Method: 2. Evaluation of the Inhibitory Activity of the Compound on Enhanced Vascular Permeability Caused by NGF in Rat
The in vivo trkA receptor inhibitory activity of the compound was examined. A Wistar female rat (SLC) were forced to be orally administered with the compound (0.5% methylcellulose solution) 10 mg/3 ml/kg or a vehicle (0.5% methylcellulose solution) 3 ml/kg. Under ether anesthesia performed at 60 min after administration, physiological saline or 1 ug/ml NGF (NGF, mouse derived 2.5S, Alomone) was intracutaneously administered to the back at 50 ul/site, and then immediately a 1% Evans blue solution (dissolved in physiological saline) was administered through caudal vein at 3 ml/kg. At a time point of 10 min after the administration, the skin on the back was taken, and shaken in formamide for 16 hours. After shaking, an absorption of Evans blue extracted with formamide was measured by an absorption meter (wavelength: 620 nm), and the concentration was determined by a calibration curve method. A value obtained by subtracting the concentration of Evans blue at a site administered with physiological saline from the concentration of Evans blue at a site administered with NGF has a function dependent on NGF, and an inhibitory rate of the compound group was determined with a group administered with vehicle being set at 100%. In this test, it was confirmed that the compound of the present invention has an excellent inhibitory activity on enhanced vascular permeability caused by NGF in rat.

[4] = dose 3 mg/kg oral, evaluation 5-65 min after administration
[5] = dose 10 mg/kg oral, evaluation 30-90 min after administration

T1 sequence (P04629 33-796): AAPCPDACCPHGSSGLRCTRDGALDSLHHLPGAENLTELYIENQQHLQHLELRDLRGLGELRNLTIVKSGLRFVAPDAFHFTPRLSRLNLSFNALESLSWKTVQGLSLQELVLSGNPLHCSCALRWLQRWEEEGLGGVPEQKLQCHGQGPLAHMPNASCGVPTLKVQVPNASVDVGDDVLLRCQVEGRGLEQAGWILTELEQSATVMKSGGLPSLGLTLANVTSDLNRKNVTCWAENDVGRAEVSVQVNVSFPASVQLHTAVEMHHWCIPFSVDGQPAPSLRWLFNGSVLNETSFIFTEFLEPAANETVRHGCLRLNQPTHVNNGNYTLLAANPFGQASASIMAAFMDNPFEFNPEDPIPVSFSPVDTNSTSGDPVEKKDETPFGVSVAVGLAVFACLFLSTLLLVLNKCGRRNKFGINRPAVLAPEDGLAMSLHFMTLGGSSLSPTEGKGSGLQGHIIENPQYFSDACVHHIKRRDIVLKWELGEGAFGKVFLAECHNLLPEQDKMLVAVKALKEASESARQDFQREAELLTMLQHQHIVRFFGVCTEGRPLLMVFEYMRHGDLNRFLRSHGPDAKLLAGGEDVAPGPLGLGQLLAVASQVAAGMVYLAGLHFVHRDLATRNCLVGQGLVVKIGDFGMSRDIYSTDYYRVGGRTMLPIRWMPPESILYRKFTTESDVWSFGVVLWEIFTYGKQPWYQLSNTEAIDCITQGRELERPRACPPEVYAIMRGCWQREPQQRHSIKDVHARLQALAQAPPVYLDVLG
T2 sequence (P35739 33-799): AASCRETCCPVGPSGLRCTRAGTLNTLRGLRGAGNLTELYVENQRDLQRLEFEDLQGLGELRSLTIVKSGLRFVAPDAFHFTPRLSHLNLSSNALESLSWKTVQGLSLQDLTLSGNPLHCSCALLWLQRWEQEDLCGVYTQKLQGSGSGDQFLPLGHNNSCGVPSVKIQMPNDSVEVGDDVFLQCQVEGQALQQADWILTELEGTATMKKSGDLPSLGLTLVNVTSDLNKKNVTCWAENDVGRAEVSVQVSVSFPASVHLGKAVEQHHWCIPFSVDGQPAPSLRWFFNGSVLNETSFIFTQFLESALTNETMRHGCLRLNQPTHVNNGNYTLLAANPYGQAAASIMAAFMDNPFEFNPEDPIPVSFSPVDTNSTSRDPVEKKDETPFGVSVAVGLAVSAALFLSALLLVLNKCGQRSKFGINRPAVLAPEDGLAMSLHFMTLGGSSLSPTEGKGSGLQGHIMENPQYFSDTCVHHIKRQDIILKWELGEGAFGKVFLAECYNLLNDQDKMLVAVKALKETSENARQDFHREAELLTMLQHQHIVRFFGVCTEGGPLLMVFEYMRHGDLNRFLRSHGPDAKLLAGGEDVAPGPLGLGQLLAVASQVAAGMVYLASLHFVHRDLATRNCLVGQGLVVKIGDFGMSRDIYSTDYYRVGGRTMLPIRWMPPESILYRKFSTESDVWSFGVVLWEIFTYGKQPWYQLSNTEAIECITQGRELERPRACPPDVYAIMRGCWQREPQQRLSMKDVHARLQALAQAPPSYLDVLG

Structure (SMILES) | IC50 [1] | Inhibition rate [2] | Change rate of effective bladder capacity [3, 4] | Inhibition rate (trkA receptor) | Change rate of effective bladder capacity [3, 5]
COCCN(C)c1nc(C(=O)Nc2cccnc2N2CCN(CC(N)=O)CC2)cs1 [Example 382] | 11 nM | 38% | 134% | 92% | –
Cl.NC(=O)C1CCN(c2ncccc2NC(=O)c2coc(N3CCOCC3)n2)CC1 [Example 501, 1-(3-{[(2-morpholin-4-yl-1,3-oxazol-4-yl)carbonyl]amino}pyridin-2-yl)piperidine-4-carboxamide hydrochloride] | 12 nM | 55% | – | 85% | 157%
NC(=O)CN1CCN(c2ccccc2NC(=O)c2csc(N3CCOCC3)n2)CC1 [Example 151] | 11 nM | 53% | – | 93% | 147%
NC(=O)CN1CCN(c2ccc(F)cc2NC(=O)c2coc(C3CCOCC3)n2)CC1 [Example 942] | 4.6 nM | – | 153% | 95% | –
COCCN(C)c1nc(C(=O)Nc2cccnc2N2CCC(C(N)=O)CC2)cs1 [Example 380] | 9.5 nM | 44% | – | 88% | 152%
NC(=O)C1CCN(c2ccccc2NC(=O)c2csc(-c3ccoc3)n2)CC1 [Example 662, 1-[2-({[2-(3-furyl)-1,3-thiazol-4-yl]carbonyl}amino)phenyl]-4-piperidine carboxamide] | 2.4 nM | – | – | – | –
COCCN(C)c1nc(C(=O)Nc2ccccc2N2CCN(CC(N)=O)CC2)cs1.Cl [Example 356, N-{2-[4-(2-amino-2-oxoethyl)-piperazin-1-yl]phenyl}-2-[(2-methoxyethyl)(methyl)amino]-1,3-thiazole-4-carboxamide hydrochloride] | 8.8 nM | – | – | 97% | 180%
NC(=O)CN1CCN(c2c(F)cccc2NC(=O)c2csc(N3CCC(O)CC3)n2)CC1 [Example 311] | 2.6 nM | – | – | 90% | –
